Laboratory results as given in patent US5064953A, “Intermediates cephalosporin derivatives” (Mochida Pharmaceutical Co., Ltd., priority 1983, dated 1991).
Converted amounts (≈) assume the structure as drawn.

How the values were obtained:
[1] = tested on: Staphylococcus 242 (Methicillin-resistant strain); experiment: Protection ability against systemic infection; format: in vivo; conditions: iv, 168 h, ICR mice, intraperitoneal infection, compound intravenously 1 hour after infection, survival at 1 week
Method: (§1) Protection ability against systemic infection was determined as follows. An aqueous suspension of test bacteria was intraperitoneally injected into groups of 10 four week old ICR mice. One hour after the infection, test compounds were intravenously administered. The number of surviving mice was counted 1 week after injection to determine the dose at which 50% of the test animals were alive (ED50 :mg/kg).
*Methicillin-resistant strain

[2] = tested on: Proteus morganii IF03848; experiment: Antibacterial activity in vitro, agar plate dilution method (MIC); format: cell-based; conditions: Morganella morganii, 10^6 cells/ml, Mueller Hinton agar, 37° C., 20 hours
Method: (§2) Antibacterial activity in vitro was determined in accordance with the agar plate dilution method. A platinum loop each of test bacteria (10^6 cells/ml), cultured in Mueller Hinton broth, was inoculated on Mueller Hinton agar plates which contained test compounds at various concentrations. After cultivating at 37° C. for 20 hours, the minimum inhibitory concentration (MIC μg/ml) was determined.

[3] = tested on: Escherichia coli 67; experiment: as above; format: cell-based; conditions: 10^6 cells/ml, Mueller Hinton agar, 37° C., 20 hours
Method: as §2

[4] = tested on: Pseudomonas aeruginosa IF03445; experiment: as above; format: cell-based; conditions: 10^6 cells/ml, Mueller Hinton agar, 37° C., 20 hours
Method: as §2

[5] = tested on: Staphylococcus aureus Smith; experiment: as above; format: cell-based; conditions: 10^6 cells/ml, Mueller Hinton agar, 37° C., 20 hours
Method: as §2

[6] = tested on: Serratia marcescens IF03759; experiment: as above; format: cell-based; conditions: 10^6 cells/ml, Mueller Hinton agar, 37° C., 20 hours
Method: as §2

[7] = tested on: Klebsiella pneumoniae IF03317; experiment: as above; format: cell-based; conditions: 10^6 cells/ml, Mueller Hinton agar, 37° C., 20 hours
Method: as §2

[8] = LD50 determined in accordance with the Probit method; conditions: in vivo, iv
Method: Next, LD50 of representative examples of the compounds of the present invention is shown in Table 3 wherein LD50 was determined in accordance with the Probit method.

[9] = tested on: Escherichia coli 67; experiment: Protection ability against systemic infection; format: in vivo; conditions: Escherichia coli, 67, iv, 168 h; ICR mice, intraperitoneal infection, compound intravenously 1 hour after infection, survival at 1 week
Method: as §1

[10] = tested on: Pseudomonas aeruginosa IF03445; experiment: Protection ability against systemic infection; format: in vivo; conditions: IF03445, iv, 168 h, ICR mice, intraperitoneal infection, compound intravenously 1 hour after infection, survival at 1 week
Method: as §1

[11] = tested on: Klebsiella pneumoniae IF03317; experiment: Protection ability against systemic infection; format: in vivo; conditions: IF03317, iv, 168 h, ICR mice, intraperitoneal infection, compound intravenously 1 hour after infection, survival at 1 week
Method: as §1

Structure (SMILES) | ED50 [1] [mg/kg] | MIC [2] [mg/L] | MIC [3] [mg/L] | MIC [4] [mg/L] | MIC [5] [mg/L] | MIC [6] [mg/L] | MIC [7] [mg/L] | LD50 [8] [mg/kg] | ED50 [9] [mg/kg] | ED50 [10] [mg/kg] | ED50 [11] [mg/kg]
Cc1nnc(SCC2=C(C(=O)O)N3C(=O)[C@@H](NC(=O)Cn4cnnn4)[C@H]3SC2)s1 [CEZ, reference compound] | 74 |  |  |  |  |  |  |  |  |  | 
CO/N=C(\C(=O)N[C@@H]1C(=O)N2C(C(=O)O)=C(CSc3cc(C)nc4ncnn34)CS[C@H]12)c1csc(N)n1 [Compound 1, (6R,7R)-7-[2-(2-amino-4-thiazolyl)-2-(Z-methoxyimino)acetamido]-3-[(5-methyl-s-triazolo[1,5-a]pyrimidin-7-yl)thiomethyl]-8-oxo-5-thia-1-azabicyclo[4.2.0] oct-2-ene-2-carboxylic acid] |  | 0.78 (≈ 1.39 µM) | < 0.05 | 50 (≈ 89 µM) | 1.57 (≈ 2.8 µM) | 0.2 (≈ 0.356 µM) | < 0.05 | > 1000 | 0.7 | 780 | 0.1
CO/N=C(\C(=O)N[C@@H]1C(=O)N2C(C(=O)O)=C(CSc3cc(C)nc4nc(C(=O)O)nn34)CS[C@H]12)c1csc(N)n1 [Compound 2, (6R,7R)-7-[2-(2-amino-4-thiazolyl)-2-(Z-methoxyimino)acetamido]-3-[(2-carboxy-5-methyl-s-triazolo[1,5-a]pyrimidin-7-yl)thiomethyl]-8-oxo-5-thia-1-azabicyclo[4.2.0]oct-2-ene-2-carboxylic acid] |  | 0.2 (≈ 0.33 µM) | < 0.05 | 12.5 (≈ 20.6 µM) | 1.57 (≈ 2.59 µM) | < 0.05 | < 0.05 | > 1000 | 0.8 | 360 | 0.1
CO/N=C(\C(=O)N[C@@H]1C(=O)N2C(C(=O)O)=C(CSc3cc(C(=O)O)nc4ncnn34)CS[C@H]12)c1csc(N)n1 [Compound 6, (6R,7R)-7-[2-(2-amino-4-thiazolyl)-2-(Z-methoxyimino)acetamido]-3-[(5-carboxy-s-triazolo[1,5-a]pyrimidin-7-yl)thiomethyl]-8-oxo-5-thia-1-azabicyclo [4.2.0]oct-2-ene-2-carboxylic acid] |  | 0.2 (≈ 0.338 µM) | < 0.05 | 6.25 (≈ 10.6 µM) | 1.57 (≈ 2.65 µM) | 0.2 (≈ 0.338 µM) | < 0.05 | > 1000 | 0.8 | 230 | 0.1
Cc1cc(SCC2=C(C(=O)O)N3C(=O)[C@@H](NC(=O)/C(=N\O)c4csc(N)n4)[C@H]3SC2)n2nc(C(=O)O)nc2n1 [Compound 8, (6R,7R)-7-[2-(2-amino-4-thiazolyl)-2-(Z-hydroxyimino)acetamido]3-[(2-carboxy-5-methyl-s-triazolo[1,5-a]pyrimidin-7-yl)thiomethyl]-8-oxo-5-thia-1-azabicyclo[4.2.0]oct-2-ene-2-carboxylic acid] | 3.55 | 0.39 (≈ 0.659 µM) | 0.2 (≈ 0.338 µM) | > 100 | 0.78 (≈ 1.32 µM) | 0.2 (≈ 0.338 µM) | < 0.05 | > 1000 |  |  | 7.68
Cc1cc(SCC2=C(C(=O)O)N3C(=O)[C@@H](NC(=O)/C(=N\OC(=O)c4ccco4)c4csc(N)n4)[C@H]3SC2)n2nc(C(=O)O)nc2n1 [Compound 9, (6R,7R)-7-[2-(2-amino-4-thiazolyl)-2-[Z-(2-furancarbonyl)oxyimino]acetamido]-3-[(2-carboxy-5-methyl-s-triazolo[1,5-a]pyrimidin-7-yl)thiomethyl]-8-oxo-5-thia-1-azabicyclo[4.2.0]oct-2-ene-2-carboxylic acid] | 2.11 | 0.2 (≈ 0.292 µM) | < 0.05 | 100 (≈ 146 µM) | 0.39 (≈ 0.569 µM) | < 0.05 | < 0.05 | > 1000 |  |  | 7.68
Cc1cc(SCC2=C(C(=O)O)N3C(=O)[C@@H](NC(=O)/C(=N\OC(=O)c4cccs4)c4csc(N)n4)[C@H]3SC2)n2nc(C(=O)O)nc2n1 [Compound 10, (6R,7R)-7-[2-(2-amino-4-thiazolyl)-2-[Z-(2-thiophenecarbonyl)oxyimino]acetamido]-3-[(2-carboxy-5-methyl-s-triazolo[1,5-a]pyrimidin-7-yl)-thiomethyl]-8-oxo-5-thia-1-azabicyclo[4.2.0]-oct-2-ene-2-carboxylic acid] | 8.01 | 0.39 (≈ 0.556 µM) | 0.1 (≈ 0.143 µM) | 50 (≈ 71.3 µM) | 0.39 (≈ 0.556 µM) | 0.1 (≈ 0.143 µM) | < 0.05 | > 1000 |  |  | 
CO/N=C(\C(=O)N[C@@H]1C(=O)N2C(C(=O)O)=C(CSc3nn4c(=O)cc(C)nc4s3)CS[C@H]12)c1csc(N)n1 [Compound 24, (6R,7R)-7-[2-(2-amino-4-thiazolyl)-2-(Z-methoxyimino)acetamido]-3-[(7-methyl-5oxo-5H-1,3,4-thiadiazolo[3,2-a]pyrimidin-2-yl)thiomethyl]-8-oxo-5-thia-1-azabicyclo[4.2.0]oct-2-ene-2-carboxylic acid] |  | 0.39 (≈ 0.656 µM) | < 0.05 | 50 (≈ 84.1 µM) | 0.78 (≈ 1.31 µM) | 0.2 (≈ 0.336 µM) | < 0.05 |  |  |  | 
Cc1cc(SCC2=C(C(=O)O)N3C(=O)[C@@H](NC(=O)/C(=N\OC(=O)c4ccccc4)c4csc(N)n4)[C@H]3SC2)n2nc(C(=O)O)nc2n1 [Compound 25, (6R,7R)-7-[2-(2-amino-4-thiazolyl)-2-(Z-benzoyloxyimino)acetamido]-3 [(2-carboxy-5-methyl-s-triazolo[1,5-a]pyrimidin-7-yl)thiomethyl]8-oxo-5-thia-1-azabicyclo[4.2.0]oct-2-ene 2-carboxylic acid] |  | 0.39 (≈ 0.561 µM) | 0.1 (≈ 0.144 µM) | 50 (≈ 71.9 µM) | 0.39 (≈ 0.561 µM) | 0.1 (≈ 0.144 µM) | < 0.05 |  |  |  | 
Cc1cc(SCC2=C(C(=O)O)N3C(=O)[C@@H](NC(=O)/C(=N\OC(=O)c4ccc[nH]4)c4csc(N)n4)[C@H]3SC2)n2nc(C(=O)O)nc2n1 [Compound 26, (6R,7R)-7-[2-(2-amino-4-thiazolyl)-2-[Z-(2-pyrrolecarbonyl)oxyimino]acetamido]-3-[(2-carboxy-5-methyl-s-triazolo[1,5-a]pyrimidin-7-yl)thiomethyl]-8-oxo-5-thia-1-azabicyclo[4.2.0]oct-2-ene-2-carboxylic acid] |  | 0.78 (≈ 1.14 µM) | 0.2 (≈ 0.292 µM) | 25 (≈ 36.5 µM) | 1.57 (≈ 2.29 µM) | 0.2 (≈ 0.292 µM) | < 0.05 |  |  |  | 
CC(=O)Oc1ccc(C(=O)O/N=C(\C(=O)N[C@@H]2C(=O)N3C(C(=O)O)=C(CSc4cc(C)nc5nc(C(=O)O)nn45)CS[C@H]23)c2csc(N)n2)cc1OC(C)=O [Compound 27, (6R,7R)-7-[2-(2-amino-4-thiazolyl)-2-[Z-(3,4-diacetoxybenzoyl)oxyimino]acetamido]-3-[(2-carboxy-5-methyl-s-triazolo[1,5-a]pyrimidin-7-yl)thiomethyl]-8-oxo-5-thia-1-azabicyclo[4.2.0]oct-2-ene-2-carboxylic acid] |  | 0.2 (≈ 0.246 µM) | < 0.05 | 0.39 (≈ 0.48 µM) | 1.57 (≈ 1.93 µM) | < 0.05 | < 0.05 |  |  |  | 
